# Measurements: paper PMC12856972 (Clinical Pharmacology in Drug Development, 2025)
# Assays:
# [1] = test system: social anxiety disorder patients; settings: as‐needed acute dosing, NCT05193409; cited from earlier work
# [2] = Plasma PK, SAD trial BNC210.010; assay type: in vivo, human; settings: 150 mg‐strength tablet, fasted, up to 1200 mg
# healthy volunteers [3] = assay: Karolinska Sleepiness Scale
# [4] = test system: mouse and rat behavioral models of anxiety and stress‐related disorders; settings: cited from earlier work
# [5] = Urinary excretion of unchanged drug, trial BNC210.001; assay type: in vivo, human; settings: suspension, fasted
# α7 nAChR = α7 nAChR (Homo sapiens, UniProt P36544); assay: Nicotine shift assay, qEEG α2 band; assay type: in vivo; settings: 1,000 mg BID; particularly with 2 mg nicotine
# Sequence of α7 nAChR (P36544 23-502): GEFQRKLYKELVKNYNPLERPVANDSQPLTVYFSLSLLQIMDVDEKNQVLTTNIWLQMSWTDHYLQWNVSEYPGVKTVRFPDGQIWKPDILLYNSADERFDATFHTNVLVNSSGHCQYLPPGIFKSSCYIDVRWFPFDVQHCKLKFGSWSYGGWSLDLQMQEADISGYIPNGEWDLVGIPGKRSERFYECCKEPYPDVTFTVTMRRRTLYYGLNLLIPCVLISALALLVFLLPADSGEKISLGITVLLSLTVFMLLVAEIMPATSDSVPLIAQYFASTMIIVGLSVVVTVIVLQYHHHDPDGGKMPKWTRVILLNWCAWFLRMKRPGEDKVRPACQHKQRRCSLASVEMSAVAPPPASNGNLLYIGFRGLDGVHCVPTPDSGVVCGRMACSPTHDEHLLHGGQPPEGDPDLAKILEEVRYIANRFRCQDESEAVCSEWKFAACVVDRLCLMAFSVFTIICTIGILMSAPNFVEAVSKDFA
# healthy volunteers [6] = assay: Peak Saccadic Velocity
# patients with PTSD = settings: 12‐week; cited from earlier work
# patients with GAD = settings: cited from earlier work
# [7] = Plasma PK, suspension vs 150 mg tablet cross-over trial BNC210.009; assay type: in vivo, human; settings: 300 mg tablet
# [8] = suspension taken with food, out‐patient, NCT02933606; cited from earlier work
# [9] = Plasma PK, 7-day trial BNC210.011; assay type: in vivo, human
# healthy volunteers [10] = assay: ARCI 49 abuse liability checklist
# healthy volunteers [11] = assay: Subjective feelings on VAS
# [12] = Plasma PK, multiple ascending dose trial BNC210.005; assay type: in vivo, human
# healthy volunteers [13] = assay: Safety and tolerability, Phase 1 trials; assay type: in vivo, human
# healthy volunteers [14] = assay: CCK‐4 induced panic model; assay type: in vivo, human; settings: 2000 mg
# healthy volunteers [15] = assay: Digit Symbol Substitution Test
# healthy volunteers [16] = assay: PEPSY psychometric test battery; assay type: in vivo, human; settings: up to 1000 mg BID for 8 days; Day 1 and Day 8
# [17] = Plasma PK, single ascending dose trial BNC210.001; assay type: in vivo, human; settings: suspension, fasted
# healthy volunteers [18] = assay: Quantitative EEG profiling
# healthy volunteers [19] = assay: Neuroendocrine biomarkers serum cortisol and ACTH; settings: Phase 1 trials
# healthy volunteers [20] = settings: in vivo
# [21] = Plasma PK, food effect SAD trial BNC210.002; assay type: in vivo, human; settings: suspension
# [22] = Phase 1 trials in healthy volunteers, N = 173
compound,measurement,setting,value
CCn1cc(C(=O)N2CCOCC2)c(=O)c2cc(NC3Cc4ccccc4C3)cnc21 [BNC210],Anxiety levels vs placebo,[1],improvements in anxiety levels
same,Dose proportionality of Cmax and AUC,[2],increased proportionally with dose
same,Karolinska Sleepiness Scale vs placebo,healthy volunteers [3]; 300 and 2000 mg,no increase in sleepiness
same,Activity in behavioral models of anxiety and stress‐related disorders,[4]; broad therapeutic dosage range,effective
same,Side effects in rodent models,[4]; preclinical pharmacology and toxicology studies,"did not elicit sedation, memory or motor impairment, or physical dependence"
same,Drug excreted unchanged in the urine,[5]; single 5 mg,13.6 % of the dose administered
same,Drug excreted unchanged in the urine,[5]; single 2000 mg,0.6 % of the dose administered
same,Extent of inhibition of nicotine‐induced α2 band response,α7 nAChR,partial
same,Peak saccadic velocity vs placebo,healthy volunteers [6]; 300 and 2000 mg,did not show any significant effect
same,"PTSD total symptom severity scores, depression, insomnia vs placebo",patients with PTSD,effective at significantly reducing
same,Threat avoidance behavior and self‐reported anxiety,patients with GAD,significantly reduced
same,Tmax,[7]; fasted,2 h
same,Tmax,[7]; fed,4 h
same,"Plasma levels, population PK analysis",[8],appreciably lower than expected
same,Day from which steady state achieved,"[9]; 225 mg‐strength tablet, 900 mg BID",3 days
same,"Steady state AUC0‐12, tablet 900 mg BID vs suspension 1000 mg BID",[9]; in vivo,double
same,ARCI 49 checklist,"healthy volunteers [10]; trials BNC210.003, BNC210.004, BNC210.005",No clinically significant feelings associated with any classes of drugs of abuse
same,Subjective feelings on VAS (16‐item Bond and Lader or eVAS),"healthy volunteers [11]; trials BNC210.001, .002, .003, .005, basal state",No effects on subjective feelings
same,Dose proportionality of exposures,"[12]; suspension BID, increasing dose levels",less than dose‐proportional
same,Mean steady state AUC0–12,"[12]; suspension, 1000 mg BID (2000 mg/day)",24900 ng·h/mL
same,Day steady state achieved,"[12]; suspension, 150 and 300 mg BID",2 days
same,Day steady state achieved,"[12]; suspension, 600 and 1000 mg BID",6 days
same,TEAE Fatigue,healthy volunteers [13]; [22],7 (4.1) n (%)
same,TEAE Headache,healthy volunteers [13]; [22],35 (20.2) n (%)
same,TEAE Nausea,healthy volunteers [13]; [22],8 (4.6) n (%)
same,TEAE Somnolence,healthy volunteers [13]; [22],16 (9.3) n (%)
same,"Dose relationship of CNS TEAEs (headache, somnolence, nausea, fatigue)",healthy volunteers [13]; SAD and MAD trials,did not suggest a dose relationship
same,Serious adverse events,healthy volunteers [13]; eight Phase 1 trials,no serious adverse events were reported
same,Maximum tolerated dose,healthy volunteers [13]; up to 2000 mg suspension and 1200 mg tablet,No maximum tolerated dose was found
same,eVAS emotional stability vs placebo,"healthy volunteers [14]; 5 min post CCK‐4 injection, P = 0.104",trend
same,PSS Sum Intensity score vs placebo,"healthy volunteers [14]; 10 min post CCK‐4 injection, 15 evaluable responders, P < 0.041",significant reduction
same,PSS Total Symptom score vs placebo,"healthy volunteers [14]; 10 min post CCK‐4 injection, 15 evaluable responders, P < 0.048",significant reduction
same,Digit Symbol Substitution Test vs placebo,"healthy volunteers [15]; 300 mg, 6‐h P < 0.05","no effects with 300 mg, except at the 6‐h time point only"
same,Digit Symbol Substitution Test vs placebo,healthy volunteers [15]; 2000 mg,no effects at any time point
same,"Cognition, PEPSY test battery",healthy volunteers [16],no overall consistent effect on cognition
same,Change in exposure with dose,[17]; beyond 600 mg,no appreciable further increase in exposure
same,Dose proportionality of AUC and Cmax,[17]; dose levels up to 50 mg,increased approximately dose proportionately
same,qEEG alpha power,healthy volunteers [18]; 300 mg dose only,small decrease in alpha power
same,qEEG delta activity vs placebo,healthy volunteers [18]; 300 and 2000 mg,"increased delta EEG activity in the resting condition, but not the Vigilance‐Controlled condition"
same,qEEG delta power,healthy volunteers [18]; 300 and 2000 mg,some increase in delta power in the Resting condition only
same,Overlap of EEG profile with lorazepam,healthy volunteers [18]; in vivo,little overlap in EEG profiles
same,qEEG beta‐3,healthy volunteers [18]; in vivo,only a slight increase
same,Effect on serum cortisol or ACTH,healthy volunteers [19],No consistent effects
same,Total reaction time vs placebo,healthy volunteers [20],no increases in total reaction time
same,Increase in AUC with food,"[21]; 300 mg, fed vs fasted",3.5 fold
same,Increase in Cmax with food,"[21]; 300 mg, fed vs fasted",more than doubling
same,Increase in AUC at 2000 mg over 1200 mg,[21]; fed,15%
same,Dose proportionality of exposure,"[21]; fed, 600 and 1200 mg",approximately dose‐proportional
"O=C1Nc2ccc(Cl)cc2C(c2ccccc2Cl)=NC1O (stereo not shown) [lorazepam, reference compound]",Karolinska Sleepiness Scale vs placebo,"healthy volunteers [3]; 2 mg, 6‐h (P < 0.001), 9‐h (P < 0.05)",significant increase in the feeling of sleepiness
same,Peak saccadic velocity (mean maximum) vs placebo,"healthy volunteers [6]; 2 mg, 6, 9, and 12 h (P < 0.001)",significantly slower
same,ARCI 49 benzedrine subscale vs placebo,"healthy volunteers [10]; 2 mg, P = 0.056",tended to score lower
same,eVAS mood vs placebo,"healthy volunteers [11]; 2 mg, trial BNC210.003, 6 h time point, P < 0.05",mood‐lowering effect
same,Digit Symbol Substitution Test vs placebo,"healthy volunteers [15]; 2 mg, 6‐h (P < 0.001), 9‐hour (P < 0.05)",significant effect
same,qEEG delta activity vs placebo,healthy volunteers [18]; 2 mg,increased delta activity during both the Resting and Vigilance‐Controlled conditions
same,Total reaction time vs placebo,healthy volunteers [20],significantly higher
